According to patent US12180193B2, “Accelerating fibrosarcoma protein degrading compounds and associated methods of use” (Arvinas Operations, Inc., priority 2020, dated 2024):
Like-named read-outs stand apart in the source and are kept apart here.

Legend:
[1] = molecular target: T1, BRAF V600E (Homo sapiens, UniProt P15056, V600E); assay: Cellular assay of target protein degradation, T-Rex 293 cells stably transfected with HA-BRAF_V600E (HA immunofluorescence, high content imaging); assay type: cell-based
T1 construct: expressed in transfected cells
T1 sequence (P15056 whole entry V600E): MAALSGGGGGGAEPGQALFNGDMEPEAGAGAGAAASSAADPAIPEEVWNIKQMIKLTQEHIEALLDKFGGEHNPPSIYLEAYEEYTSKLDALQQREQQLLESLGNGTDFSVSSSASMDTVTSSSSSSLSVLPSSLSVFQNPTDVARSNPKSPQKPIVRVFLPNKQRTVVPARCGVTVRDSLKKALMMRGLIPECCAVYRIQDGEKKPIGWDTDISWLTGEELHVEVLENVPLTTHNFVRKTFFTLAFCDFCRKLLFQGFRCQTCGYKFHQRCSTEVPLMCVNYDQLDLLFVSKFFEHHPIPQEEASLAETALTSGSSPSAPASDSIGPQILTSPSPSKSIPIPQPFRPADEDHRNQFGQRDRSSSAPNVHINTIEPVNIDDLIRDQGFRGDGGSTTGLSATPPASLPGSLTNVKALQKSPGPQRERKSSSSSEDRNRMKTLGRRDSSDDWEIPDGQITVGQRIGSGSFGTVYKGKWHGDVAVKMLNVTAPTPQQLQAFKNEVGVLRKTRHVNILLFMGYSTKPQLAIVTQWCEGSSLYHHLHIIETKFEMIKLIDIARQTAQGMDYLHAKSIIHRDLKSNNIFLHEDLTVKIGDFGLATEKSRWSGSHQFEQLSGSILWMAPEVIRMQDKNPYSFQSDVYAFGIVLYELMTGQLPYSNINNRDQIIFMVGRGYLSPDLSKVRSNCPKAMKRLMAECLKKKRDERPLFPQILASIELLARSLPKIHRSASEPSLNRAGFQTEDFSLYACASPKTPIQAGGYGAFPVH
Outline: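 Doxycycline-induced (1 ng/mL) T-Rex 293 cells expressing HA-BRAF V600E treated 24 h at 37 °C with compound at 1 μM to 0.1 nM final in 0.1% DMSO. Remaining HA-tagged protein quantified by fixed-cell anti-HA immunofluorescence and high-content imaging; DC50 and Dmax (% of control) derived.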

[2] = molecular target: T2, BRAF G466V (Homo sapiens, UniProt P15056, G466V); assay: Cellular assay of target protein degradation, T-Rex 293 cells stably transfected with HA-BRAF G466V (HA immunofluorescence, high content imaging); assay type: cell-based
T2 construct: expressed in transfected cells
T2 sequence (P15056 whole entry G466V): as the sequence (P15056 whole entry V600E) above, with G466V, E600V counted along it
Outline: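 Doxycycline-induced (0.75 ng/mL) cells treated 24 h at 37 °C with compound from 30 nM to 3 pM (0.1% DMSO). After fixation and permeabilisation, HA-tagged BRAF G466V immunostained and quantified by high-content imaging. DC50 and Dmax (percent of control) derived.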

[3] = half maximal degradation, T-Rex 293 HA-BRAF V600E; read-out: BRaf V600E DC50
[4] = maximum degradation observed, T-Rex 293 HA-BRAF V600E
[5] = half maximal degradation, T-Rex 293 HA-BRAF G466V; read-out: BRaf G466V DC50
[6] = maximum degradation observed, T-Rex 293 HA-BRAF G466V
[7] = read-out: BRaf V600E DC50; half maximal degradation, T-Rex 293 HA-BRAF V600E
[8] = read-out: BRaf G466V DC50; half maximal degradation, T-Rex 293 HA-BRAF G466V

Structure (SMILES) | DC50 [1, 3] [nM] | Dmax [1, 4] [%] | DC50 [2, 5] [nM] | Dmax [2, 6] [%] | DC50 [1, 7] [nM] | DC50 [2, 8] [nM]
O=C1CCC(N2Cc3cc(N4CCC(CN5CC(C6(c7ccc(-c8cnc9[nH]cc(C(=O)c%10c(F)ccc(NS(=O)(=O)N%11CC[C@@H](F)C%11)c%10F)c9c8)cc7)CC6)C5)CC4)ccc3C2=O)C(=O)N1 (stereo partly drawn) [Compound 316, (3R)-N-{3-[5-(4-{1-[1-({1-[2-(2,6-dioxopiperidin-3-yl)-1-oxo-2,3-dihydro-1H-isoindol-5-yl]piperidin-4-yl}methyl)azetidin-3-yl]cyclopropyl}phenyl)-1H-pyrrolo[2,3-b]pyridine-3-carbonyl]-2,4-difluorophenyl}-3-fluoropyrrolidine-1-sulfonamide] | 50 to 500 | < 35 | 1 to 10 | > 70 | – | –
O=C1CCC(N2Cc3cc(N4CCN(CCCCc5ccc(-c6cnc7[nH]cc(C(=O)c8c(F)ccc(NS(=O)(=O)N9CC[C@@H](F)C9)c8F)c7c6)cc5)CC4)ccc3C2=O)C(=O)N1 (stereo partly drawn) [Compound 317, (3R)-N-(3-{5-[4-(4-{4-[2-(2,6-dioxopiperidin-3-yl)-1-oxo-2,3-dihydro-1H-isoindol-5-yl]piperazin-1-yl}butyl)phenyl]-1H-pyrrolo[2,3-b]pyridine-3-carbonyl}-2,4-difluorophenyl)-3-fluoropyrrolidine-1-sulfonamide] | 50 to 500 | 35 to 70 | 1 to 10 | > 70 | – | –
O=C1CCC(N2Cc3cc(N4CCN(CCCCCc5ccc(-c6cnc7[nH]cc(C(=O)c8c(F)ccc(NS(=O)(=O)N9CC[C@@H](F)C9)c8F)c7c6)cc5)CC4)ccc3C2=O)C(=O)N1 (stereo partly drawn) [Compound 318, (3R)-N-(3-{5-[4-(5-{4-[2-(2,6-dioxopiperidin-3-yl)-1-oxo-2,3-dihydro-1H-isoindol-5-yl]piperazin-1-yl}penyl)phenyl]-1H-pyrrolo[2,3-b]pyridine-3-carbonyl}-2,4-difluorophenyl)-3-fluoropyrrolidine-1-sulfonamide] | 50 to 500 | 35 to 70 | 10 to 30 | 35 to 70 | – | –
O=C1CCC(N2Cc3cc(C4CCN(CC5CC6(C5)CN(c5ccc(-c7cnc8[nH]cc(C(=O)c9c(F)ccc(NS(=O)(=O)N%10CC[C@@H](F)C%10)c9F)c8c7)cc5F)C6)CC4)ccc3C2=O)C(=O)N1 (stereo partly drawn) [Compound 319, (3R)-N-[3-(5-{4-[6-({4-[2-(2,6-dioxopiperidin-3-yl)-1-oxo-2,3-dihydro-1H-isoindol-5-yl]piperidin-1-yl}methyl)-2-azaspiro[3.3]heptan-2-yl]-3-fluorophenyl}-1H-pyrrolo[2,3-b]pyridine-3-carbonyl)-2,4-difluorophenyl]-3-fluoropyrrolidine-1-sulfonamide] | – | 35 to 70 | – | > 70 | 5 to 50 | 1 to 10
O=C1CCC(N2Cc3cc(N4CC(CN5CCN(C6(c7ncc(-c8cnc9[nH]cc(C(=O)c%10c(F)ccc(NS(=O)(=O)N%11CC[C@@H](F)C%11)c%10F)c9c8)cn7)CC6)CC5)C4)ccc3C2=O)C(=O)N1 (stereo partly drawn) [Compound 320, (3R)-N-{3-[5-(2-{1-[4-({1-[2-(2,6-dioxopiperidin-3-yl)-1-oxo-2,3-dihydro-1H-isoindol-5-yl]azetidin-3-yl}methyl)piperazin-1-yl]cyclopropyl}pyrimidin-5-yl)-1H-pyrrolo[2,3-b]pyridine-3-carbonyl]-2,4-difluorophenyl}-3-fluoropyrrolidine-1-sulfonamide] | 50 to 500 | 35 to 70 | 1 to 10 | 35 to 70 | – | –
O=C1CCC(N2Cc3cc(CCCCN4CC5(C4)CN(c4ccc(-c6cnc7[nH]cc(C(=O)c8c(F)ccc(NS(=O)(=O)N9CC[C@@H](F)C9)c8F)c7c6)cc4)C5)ccc3C2=O)C(=O)N1 (stereo partly drawn) [Compound 321, (3R)-N-(3-{5-[4-(6-{4-[2-(2,6-dioxopiperidin-3-yl)-1-oxo-2,3-dihydro-1H-isoindol-5-yl]butyl}-2,6-diazaspiro[3.3]heptan-2-yl)phenyl]-1H-pyrrolo[2,3-b]pyridine-3-carbonyl}-2,4-difluorophenyl)-3-fluoropyrrolidine-1-sulfonamide] | 5 to 50 | 35 to 70 | 1 to 10 | > 70 | – | –
O=C1CCC(N2Cc3cc(N4CCC(CN5CCCN(c6ccc(-c7cnc8[nH]cc(C(=O)c9c(F)ccc(NS(=O)(=O)N%10CC[C@@H](F)C%10)c9F)c8c7)cc6)CC5)CC4)ccc3C2=O)C(=O)N1 (stereo partly drawn) [Compound 322, (3R)-N-[3-(5-{4-[4-({1-[2-(2,6-dioxopiperidin-3-yl)-1-oxo-2,3-dihydro-1H-isoindol-5-yl]piperidin-4-yl}methyl)-1,4-diazepan-1-yl]phenyl}-1H-pyrrolo[2,3-b]pyridine-3-carbonyl)-2,4-difluorophenyl]-3-fluoropyrrolidine-1-sulfonamide] | – | < 35 | – | 35 to 70 | 50 to 500 | 1 to 10
O=C1CCC(N2C(=O)c3ccc(C4CCN(CC5CCN(c6ccc(-c7cnc8[nH]cc(C(=O)c9c(F)ccc(NS(=O)(=O)N%10CC[C@@H](F)C%10)c9F)c8c7)cc6)CC5)CC4)cc3C2=O)C(=O)N1 (stereo partly drawn) [Compound 323, (3R)-N-[3-(5-{4-[4-({4-[2-(2,6-dioxopiperidin-3-yl)-1,3-dioxo-2,3-dihydro-1H-isoindol-5-yl]piperidin-1-yl}methyl)piperidin-1-yl]phenyl}-1H-pyrrolo[2,3-b]pyridine-3-carbonyl)-2,4-difluorophenyl]-3-fluoropyrrolidine-1-sulfonamide] | 50 to 500 | < 35 | 10 to 30 | 35 to 70 | – | –
O=C1CCC(N2Cc3cc(N4CCCN(CC5CCN(c6ccc(-c7cnc8[nH]cc(C(=O)c9c(F)ccc(NS(=O)(=O)N%10CC[C@@H](F)C%10)c9F)c8c7)cc6)CC5)CC4)ccc3C2=O)C(=O)N1 (stereo partly drawn) [Compound 324, (3R)-N-[3-(5-{4-[4-({4-[2-(2,6-dioxopiperidin-3-yl)-1-oxo-2,3-dihyrdo-1H-isoindol-5-yl]-1,4-diazepan-1-yl}methyl)piperidin-1-yl]phenyl}-1H-pyrrolo[2,3-b]pyridine-3-carbonyl)-2,4-difluorophenyl]-3-fluoropyrrolidine-1-sulfonamide] | 5 to 50 | < 35 | 1 to 10 | > 70 | – | –
O=C1CCC(N2Cc3cc(CCCCN4CCN(c5ccc(-c6cnc7[nH]cc(C(=O)c8c(F)ccc(NS(=O)(=O)N9CC[C@@H](F)C9)c8F)c7c6)cc5)CC4)ccc3C2=O)C(=O)N1 (stereo partly drawn) [Compound 325, (3R)-N-(3-{5-[4-(4-{4-[2-(2,6-dioxopiperidin-3-yl)-1-oxo-2,3-dihydro-1H-isoindol-5-yl]butyl}piperazin-1-yl)phenyl]-1H-pyrrolo[2,3-b]pyridine-3-carbonyl}-2,4-difluorophenyl)-3-fluoropyrrolidine-1-sulfonamide] | 5 to 50 | 35 to 70 | 1 to 10 | > 70 | – | –
O=C1CCC(N2Cc3cc(C4CCN(C5CCN(c6ccc(-c7cnc8[nH]cc(C(=O)c9c(F)ccc(NS(=O)(=O)N%10CC[C@@H](F)C%10)c9F)c8c7)cc6)CC5)CC4)ccc3C2=O)C(=O)N1 (stereo partly drawn) [Compound 326, (3R)-N-{3-[5-(4-{4-[2-(2,6-dioxopiperidin-3-yl)-1-oxo-2,3-dihydro-1H-isoindol-5-yl]-[1,4′-bipiperidin]-1′-yl}phenyl)-1H-pyrrolo[2,3-b]pyridine-3-carbonyl]-2,4-difluorophenyl}-3-fluoropyrrolidine-1-sulfonamide] | 5 to 50 | 35 to 70 | < 1 | > 70 | – | –
O=C1CC[C@H](N2Cc3cc(CC[C@@H](O)CN4CC5(C4)CN(c4ccc(-c6cnc7[nH]cc(C(=O)c8c(F)ccc(NS(=O)(=O)N9CC[C@@H](F)C9)c8F)c7c6)cc4)C5)ccc3C2=O)C(=O)N1 [Compound 327, (3R)-N-{3-[5-(4-{6-[(2R)-4-{2-[(3)S-2,6-dioxopiperidin-3-yl]-1-oxo-2,3-dihydro-1H-isoindol-5-yl}-2-hydroxybutyl]-2,6-diazaspiro[3.3]heptan-2-yl}phenyl)-1H-pyrrolo[2,3-b]pyridine-3-carbonyl]-2,4-difluorophenyl}-3-fluoropyrrolidine-1-sulfonamide] | 5 to 50 | 35 to 70 | 1 to 10 | > 70 | – | –
O=C1CC[C@@H](N2Cc3cc(CC[C@@H](O)CN4CC5(C4)CN(c4ccc(-c6cnc7[nH]cc(C(=O)c8c(F)ccc(NS(=O)(=O)N9CC[C@@H](F)C9)c8F)c7c6)cc4)C5)ccc3C2=O)C(=O)N1 [Compound 328, (3R)-N-{3-[5-(4-{6-[(2R)-4-{2-[(3R)-2,6-dioxopiperidin-3-yl]-1-oxo-2,3-dihydro-1H-isoindol-5-yl}-2-hydroxybutyl]-2,6-diazaspiro[3.3]heptan-2-yl}phenyl)-1H-pyrrolo[2,3-b]pyridine-3-carbonyl]-2,4-difluorophenyl}-3-fluoropyrrolidine-1-sulfonamide] | 5 to 50 | 35 to 70 | 1 to 10 | > 70 | – | –
O=C1CCC(N2Cc3cc(N4CCC(CN5CC[C@H]6[C@@H](C5)CN6c5ccc(-c6cnc7[nH]cc(C(=O)c8c(F)ccc(NS(=O)(=O)N9CC[C@@H](F)C9)c8F)c7c6)cc5)CC4)ccc3C2=O)C(=O)N1 (stereo partly drawn) [Compound 329, (3R)-N-[3-(5-{4-[(1S,6S)-3-({1-[2-(2,6-dioxopiperidin-3-yl)-1-oxo-2,3-dihydro-1H-isoindol-5-yl]piperidin-4-yl}methyl)-3,7-diazabicyclo[4.2.0]octan-7-yl]phenyl}-1H-pyrrolo[2,3-b]pyridine-3-carbonyl)-2,4-difluorophenyl]-3-fluoropyrrolidine-1-sulfonamide] | 5 to 50 | 35 to 70 | 1 to 10 | > 70 | – | –
